# Experimental data: ChEMBL document CHEMBL1909629, “Discovery of novel 3,5-disubstituted indole derivatives as potent inhibitors of Pim-1, Pim-2, and Pim-3 protein kinases” (Bioorg Med Chem Lett, 2011)
# Tests used:
# [1] = target: Serine/threonine-protein kinase pim-1 (Homo sapiens, UniProt P11309); assay: Inhibition of PIM1 using BAD peptide as substrate preincubated for 15 mins measured after 60 to 100 mins by luminescence assay
# [2] = target: Serine/threonine-protein kinase pim-2 (Homo sapiens, UniProt Q9P1W9); assay: Inhibition of PIM2 using BAD peptide as substrate preincubated for 15 mins measured after 60 to 100 mins by luminescence assay
# Sequence of Serine/threonine-protein kinase pim-2 (Q9P1W9 whole entry): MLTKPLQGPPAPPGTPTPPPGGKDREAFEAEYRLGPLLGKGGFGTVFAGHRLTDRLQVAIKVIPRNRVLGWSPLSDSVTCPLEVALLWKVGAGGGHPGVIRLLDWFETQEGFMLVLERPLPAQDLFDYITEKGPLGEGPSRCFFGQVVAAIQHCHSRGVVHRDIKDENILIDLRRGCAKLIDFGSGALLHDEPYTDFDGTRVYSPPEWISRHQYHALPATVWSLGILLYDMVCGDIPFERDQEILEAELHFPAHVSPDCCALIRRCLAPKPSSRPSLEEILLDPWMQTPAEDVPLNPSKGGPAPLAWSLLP
# [3] = target: Serine/threonine-protein kinase pim-3 (Homo sapiens, UniProt Q86V86); assay: Inhibition of PIM3 using BAD peptide as substrate preincubated for 15 mins measured after 60 to 100 mins by luminescence assay
# [4] = target: T1, Receptor-type tyrosine-protein kinase FLT3 (Homo sapiens, UniProt P36888); assay: Inhibition of FLT3
# T1 sequence (P36888 whole entry): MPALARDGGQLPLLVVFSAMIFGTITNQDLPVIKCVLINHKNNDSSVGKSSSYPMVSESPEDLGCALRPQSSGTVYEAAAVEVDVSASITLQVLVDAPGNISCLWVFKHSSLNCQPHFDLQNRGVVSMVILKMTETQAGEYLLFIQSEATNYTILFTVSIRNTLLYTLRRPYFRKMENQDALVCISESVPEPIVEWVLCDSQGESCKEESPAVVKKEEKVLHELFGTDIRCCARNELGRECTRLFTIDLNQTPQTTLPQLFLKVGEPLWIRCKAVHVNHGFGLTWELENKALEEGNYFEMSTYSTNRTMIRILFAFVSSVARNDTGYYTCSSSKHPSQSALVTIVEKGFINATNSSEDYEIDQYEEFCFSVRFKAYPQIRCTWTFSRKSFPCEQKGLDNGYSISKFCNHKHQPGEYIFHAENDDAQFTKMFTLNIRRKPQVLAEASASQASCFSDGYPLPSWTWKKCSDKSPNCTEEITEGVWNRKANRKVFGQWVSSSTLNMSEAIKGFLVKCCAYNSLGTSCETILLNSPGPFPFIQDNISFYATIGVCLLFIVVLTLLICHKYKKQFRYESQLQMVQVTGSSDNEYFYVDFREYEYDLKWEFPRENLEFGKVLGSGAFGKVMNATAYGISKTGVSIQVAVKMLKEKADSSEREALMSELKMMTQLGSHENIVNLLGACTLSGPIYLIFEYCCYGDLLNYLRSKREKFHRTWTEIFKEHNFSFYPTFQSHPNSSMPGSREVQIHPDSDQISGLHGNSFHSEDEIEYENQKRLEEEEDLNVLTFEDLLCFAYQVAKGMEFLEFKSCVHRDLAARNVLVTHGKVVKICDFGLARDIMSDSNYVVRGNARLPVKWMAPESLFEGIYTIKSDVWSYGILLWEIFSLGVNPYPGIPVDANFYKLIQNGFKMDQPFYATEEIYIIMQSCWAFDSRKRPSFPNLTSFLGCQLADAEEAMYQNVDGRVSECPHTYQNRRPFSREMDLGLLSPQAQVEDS
# [5] = target: Mast/stem cell growth factor receptor Kit (Homo sapiens, UniProt P10721); assay: Inhibition of cKIT
# Sequence of Mast/stem cell growth factor receptor Kit (P10721 whole entry): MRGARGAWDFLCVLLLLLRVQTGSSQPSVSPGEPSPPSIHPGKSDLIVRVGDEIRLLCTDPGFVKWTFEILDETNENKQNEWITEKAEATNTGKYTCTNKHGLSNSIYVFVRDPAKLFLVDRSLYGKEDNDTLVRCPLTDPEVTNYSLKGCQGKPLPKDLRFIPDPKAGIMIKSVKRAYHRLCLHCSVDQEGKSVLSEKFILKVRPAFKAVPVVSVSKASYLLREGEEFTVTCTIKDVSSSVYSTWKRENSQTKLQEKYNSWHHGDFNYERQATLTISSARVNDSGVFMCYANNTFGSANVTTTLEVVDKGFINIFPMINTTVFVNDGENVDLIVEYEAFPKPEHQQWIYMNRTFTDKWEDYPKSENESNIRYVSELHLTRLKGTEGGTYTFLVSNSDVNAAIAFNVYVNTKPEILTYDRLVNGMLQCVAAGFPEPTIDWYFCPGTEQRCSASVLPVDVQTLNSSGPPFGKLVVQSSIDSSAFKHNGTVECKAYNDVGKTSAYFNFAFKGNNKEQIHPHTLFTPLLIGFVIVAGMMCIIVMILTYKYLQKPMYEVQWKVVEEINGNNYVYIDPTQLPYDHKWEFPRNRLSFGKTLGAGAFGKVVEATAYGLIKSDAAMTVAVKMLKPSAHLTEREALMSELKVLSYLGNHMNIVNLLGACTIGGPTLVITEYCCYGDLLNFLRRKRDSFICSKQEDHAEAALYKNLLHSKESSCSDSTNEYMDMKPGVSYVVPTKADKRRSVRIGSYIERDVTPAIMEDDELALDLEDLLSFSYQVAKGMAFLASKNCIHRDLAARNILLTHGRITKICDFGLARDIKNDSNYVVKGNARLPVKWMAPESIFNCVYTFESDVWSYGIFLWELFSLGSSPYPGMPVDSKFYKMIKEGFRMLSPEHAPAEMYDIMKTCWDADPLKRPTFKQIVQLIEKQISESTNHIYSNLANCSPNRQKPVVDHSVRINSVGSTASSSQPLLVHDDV
# [6] = Inhibition of PDGFR
# [7] = target: Vascular endothelial growth factor receptor 2 (Homo sapiens, UniProt P35968); assay: Inhibition of KDR
# Sequence of Vascular endothelial growth factor receptor 2 (P35968 whole entry): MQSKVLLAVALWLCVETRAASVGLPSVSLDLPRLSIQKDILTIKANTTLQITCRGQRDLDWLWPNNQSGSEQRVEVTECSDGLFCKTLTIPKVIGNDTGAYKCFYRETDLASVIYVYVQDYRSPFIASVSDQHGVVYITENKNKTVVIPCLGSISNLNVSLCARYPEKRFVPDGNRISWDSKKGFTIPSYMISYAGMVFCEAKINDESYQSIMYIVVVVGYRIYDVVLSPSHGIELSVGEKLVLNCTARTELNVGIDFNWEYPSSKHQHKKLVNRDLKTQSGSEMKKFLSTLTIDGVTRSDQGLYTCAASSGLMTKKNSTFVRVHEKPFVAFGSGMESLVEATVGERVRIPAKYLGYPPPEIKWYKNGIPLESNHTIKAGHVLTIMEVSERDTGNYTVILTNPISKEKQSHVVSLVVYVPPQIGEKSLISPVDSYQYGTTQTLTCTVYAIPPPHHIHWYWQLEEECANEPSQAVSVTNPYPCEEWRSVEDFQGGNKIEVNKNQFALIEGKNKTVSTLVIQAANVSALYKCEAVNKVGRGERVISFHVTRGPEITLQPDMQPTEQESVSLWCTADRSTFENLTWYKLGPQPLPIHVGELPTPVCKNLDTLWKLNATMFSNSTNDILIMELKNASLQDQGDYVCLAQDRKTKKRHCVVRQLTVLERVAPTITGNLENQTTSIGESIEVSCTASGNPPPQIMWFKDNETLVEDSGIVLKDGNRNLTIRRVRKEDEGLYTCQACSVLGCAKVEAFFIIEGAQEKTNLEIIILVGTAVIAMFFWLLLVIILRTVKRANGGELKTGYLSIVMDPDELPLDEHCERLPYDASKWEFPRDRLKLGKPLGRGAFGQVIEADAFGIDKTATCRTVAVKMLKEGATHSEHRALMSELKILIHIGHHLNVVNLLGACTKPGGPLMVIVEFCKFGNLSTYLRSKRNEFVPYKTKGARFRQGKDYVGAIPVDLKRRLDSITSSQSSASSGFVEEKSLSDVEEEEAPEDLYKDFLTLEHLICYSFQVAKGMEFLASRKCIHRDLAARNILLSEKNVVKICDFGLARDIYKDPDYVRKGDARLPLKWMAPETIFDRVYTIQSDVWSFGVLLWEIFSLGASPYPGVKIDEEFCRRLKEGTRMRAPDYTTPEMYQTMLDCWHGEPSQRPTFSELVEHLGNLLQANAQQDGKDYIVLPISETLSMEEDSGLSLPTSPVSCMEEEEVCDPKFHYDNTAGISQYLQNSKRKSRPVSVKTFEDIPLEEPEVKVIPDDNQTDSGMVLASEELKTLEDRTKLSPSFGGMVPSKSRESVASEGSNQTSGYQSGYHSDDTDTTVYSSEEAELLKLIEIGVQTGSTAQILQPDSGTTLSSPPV
# Sequence of Serine/threonine-protein kinase pim-1 (P11309 whole entry): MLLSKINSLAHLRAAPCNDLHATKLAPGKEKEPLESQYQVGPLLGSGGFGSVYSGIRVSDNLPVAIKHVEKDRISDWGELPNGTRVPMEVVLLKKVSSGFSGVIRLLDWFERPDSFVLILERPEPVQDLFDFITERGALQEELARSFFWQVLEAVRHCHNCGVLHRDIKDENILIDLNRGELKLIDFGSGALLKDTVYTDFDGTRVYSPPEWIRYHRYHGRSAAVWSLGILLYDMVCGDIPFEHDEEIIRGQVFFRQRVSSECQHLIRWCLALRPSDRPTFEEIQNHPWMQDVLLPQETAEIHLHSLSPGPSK
SMILES,IC50 [1] [nM],IC50 [2] [nM],IC50 [3] [nM],IC50 [4] [nM],IC50 [5] [nM],IC50 [6] [nM],IC50 [7] [nM]
Nc1ccc(-c2ccc3c(-c4ccc(N5CCNCC5)cc4)n[nH]c3n2)cn1,15000,> 25000,12000,–,–,–,–
C[C@H](N)COc1cncc(-c2ccc3[nH]cc(-c4ccc(N)nc4F)c3c2)n1,< 2,56,< 2,–,–,–,–
CC(C)[C@H](N)COc1cncc(-c2ccc3[nH]cc(-c4ccc(N)nc4F)c3c2)n1,< 2,72,6,–,–,–,–
Nc1ccc(-c2c[nH]c3ccc(-c4cncc(N5CCNCC5)n4)cc23)c(F)n1,< 2,61,4,–,–,–,–
Nc1ccc(-c2c[nH]c3ccc(-c4cncc(OC[C@H](N)c5ccccc5)n4)cc23)c(F)n1,< 2,20,5,–,–,–,–
CC(C)(C)[C@H](N)COc1cncc(-c2ccc3[nH]cc(-c4ccc(N)nc4F)c3c2)n1,< 2,122,10,–,–,–,–
c1cc(-c2ccc3c(-c4ccc(N5CCNCC5)cc4)n[nH]c3n2)ccn1,2500,> 25000,5800,–,–,–,–
c1cncc(-c2ccc3[nH]cc(-c4ccc(N5CCNCC5)cc4)c3c2)c1,192,15000,490,–,–,–,–
Oc1ccc(-c2ccc3c(-c4ccc(N5CCNCC5)cc4)c[nH]c3n2)cc1,30,283,58,111,1110,987,4760
c1cc(-c2ccc3c(-c4ccc(N5CCNCC5)cc4)n[nH]c3n2)c2cc[nH]c2c1,110,650,260,–,–,–,–
Oc1ccc(-c2ccc3c(-c4ccc(N5CCNCC5)cc4)c[nH]c3c2)cc1,4,42,22,> 25000,> 25000,–,> 25000
NS(=O)(=O)c1ccc(-c2ccc3c(-c4ccc(N5CCNCC5)cc4)n[nH]c3n2)cc1,11000,> 25000,10000,–,–,–,–
c1ccc(-c2ccc3c(-c4ccc(N5CCNCC5)cc4)n[nH]c3n2)cc1,1700,7200,7400,–,–,–,–
c1cnc(-c2ccc3[nH]cc(-c4ccc(N5CCNCC5)cc4)c3c2)cn1,530,13600,960,–,–,–,–
Nc1ccc(-c2c[nH]c3ccc(-c4cncc(OC[C@@H](N)c5ccccc5)n4)cc23)c(F)n1,< 2,10,< 2,–,–,–,–
Oc1ccc(-c2ccc3c(-c4ccc(N5CCNCC5)cc4)n[nH]c3n2)cc1,9,39,12,4,7,6,18
c1cc(-c2ccc3[nH]cc(-c4ccc(N5CCNCC5)cc4)c3c2)ccn1,2800,> 25000,5700,–,–,–,–
Nc1ccc(-c2c[nH]c3ccc(-c4cncc(N5CCCC(N)C5)n4)cc23)c(F)n1 (stereo unspecified),< 2,81,3,–,–,–,–
COc1ccc(-c2ccc3c(-c4ccc(N5CCNCC5)cc4)n[nH]c3n2)cc1,4900,> 25000,12800,–,–,–,–
Nc1ccc(-c2c[nH]c3ccc(-c4cncc(O[C@H]5CC[C@H](N)CC5)n4)cc23)c(F)n1,< 2,83,5,–,–,–,–
CC[C@H](N)COc1cncc(-c2ccc3[nH]cc(-c4ccc(N)nc4F)c3c2)n1,< 2,26,5,–,–,–,–
c1ccc(-c2ccc3[nH]cc(-c4ccc(N5CCNCC5)cc4)c3c2)nc1,2100,> 25000,14000,–,–,–,–
c1ncc(-c2ccc3[nH]cc(-c4ccc(N5CCNCC5)cc4)c3c2)cn1,2600,> 25000,3300,–,–,–,–
Nc1cc(-c2ccc3c(-c4ccc(N5CCNCC5)cc4)n[nH]c3n2)ccn1,170,20000,1800,–,–,–,–
Nc1ccc(-c2c[nH]c3ccc(-c4cnccn4)cc23)c(F)n1,250,5000,310,–,–,–,–
